# Assay results: patent US9241961B2, “Medicinal product for treating gastrointestinal ulcers” (BIOCEDEX, priority 2009, dated 2016)
# Key:
# [1] = development of body weight of the rats during 6-day oral treatment; format: in vivo; details: Sb 0.3-1.0-3.0 g/kg/d and/or ibuprofen 100 mg/kg/d, 6 days, rat
# Protocol: Male Wistar rats obtained from Janvier weighing between 200 and 220 grams are used after acclimatization for at least 7 days in the animal house (temp.=22 ±2° C.; humidity: 50±20%; food SAFE “A04”; nyctohemeral cycle: 12 hours of light and 12 hours of darkness).
# On D1, the rat receives the test product or the solvent by the oral route. Then, 1 hour later, the rat receives ibuprofen at 100 mg/kg by the oral route, or the solvent for the control group. The rats receive these treatments for 6 consecutive days.
# [2] = test system: gastric ibuprofen-induced ulcer; assay: model of gastric ibuprofen-induced ulcer in the rat; format: in vivo; details: ibuprofen alone 100 mg/kg/d oral for 6 days, male Wistar rat
# Protocol: The inventors determined the anti-ulcer effect of Saccharomyces boulardii in the model of gastric ibuprofen-induced ulcer in the rat according to the protocol of Abraham et al. (2005) Dig Dis Sci 50:1 632-1 640. Male Wistar rats obtained from Janvier weighing between 200 and 220 grams are used after acclimatization for at least 7 days in the animal house (temp.=22 ±2° C.; humidity: 50±20%; food SAFE “A04”; nyctohemeral cycle: 12 hours of light and 12 hours of darkness). On D1, the rat receives the test product or the solvent by the oral route. Then, 1 hour later, the rat receives ibuprofen at 100 mg/kg by the oral route, or the solvent for the control group. The rats receive these treatments for 6 consecutive days. The animals go without food for 14-16 hours before the last administration of ibuprofen, but have access to drink. They are placed individually in a metal cage, the floor of which is a grating, to prevent coprophagia. On D6 the rat is sacrificed. […] Macroscopic evaluation of the gastric lesions is carried out as follows: • the stomach is spread out on a cork support with pins; • the number of ulcers on each stomach is counted; • the ulcerated area (mm^2) of haemorrhagic lesions is measured with a grid of squares (×10) and a stereo-microscope (Leica Wild M8) by measuring the length (mm) and width (mm) of each ulceration. […]
structure (smiles),measurement,setting,value
CC(C)Cc1ccc(C(C)C(=O)O)cc1 (stereo not drawn) [ibuprofen],development of body weight relative to the untreated group,[1],do not alter the development of body weight
same,number of ulcers,"[2]; gastric mucosa, recorded on day 6",6.60±1.06 ulcers
same,total area of ulceration,[2]; measured on day 6,9.40±1.72 mm^2
